Structures are written as SMILES.

One experiment concerns the target T1, SHP-2 enzyme (Met1-Leu525) (Homo sapiens, UniProt Q06124).
T1 construct: synthetized by Origene, Met1-Leu525, cat #TP750155; purchased Origene TP750155
T1 sequence (Q06124 1-525): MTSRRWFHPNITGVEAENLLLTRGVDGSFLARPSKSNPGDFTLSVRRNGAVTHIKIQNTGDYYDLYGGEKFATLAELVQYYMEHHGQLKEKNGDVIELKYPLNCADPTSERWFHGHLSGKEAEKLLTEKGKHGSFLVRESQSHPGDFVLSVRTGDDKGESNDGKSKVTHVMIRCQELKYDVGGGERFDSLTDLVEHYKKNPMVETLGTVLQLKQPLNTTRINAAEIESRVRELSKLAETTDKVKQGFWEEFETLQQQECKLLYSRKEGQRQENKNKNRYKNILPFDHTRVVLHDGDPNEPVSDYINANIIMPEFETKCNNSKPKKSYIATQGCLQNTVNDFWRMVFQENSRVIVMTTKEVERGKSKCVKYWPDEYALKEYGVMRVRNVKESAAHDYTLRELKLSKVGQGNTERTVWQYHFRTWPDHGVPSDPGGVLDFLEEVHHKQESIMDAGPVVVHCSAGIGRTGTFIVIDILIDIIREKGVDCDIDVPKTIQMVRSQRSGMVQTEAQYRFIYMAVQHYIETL
The experiment is described as follows: SHP2 inhibition enzymatic assay (DiFMUP substrate, IRS1 peptide activation). In kind it is biochemical. As to conditions: SHP2 wt; activated by 500 nM IRS1 peptide; 75 μM DiFMUP substrate. Summed up:
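SHP-2 (Met1-Leu525, 0.5 nM final) preincubated 30 min with compounds and IRS1 activating peptide in HEPES pH 7.2 buffer with NaCl, KCl, EDTA, tween-20, 5 mM DTT. DiFMUP then added for 30 min at room temperature and fluorescence read. IC50 from four-parameter logistic fit of % inhibition.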
In the case of `FC(F)(F)c1ncccc1Sc1cnc2[nH]c(N3CCN4CCNCC4C3)nc2n1` (centres unmarked) [Example 56, 2-(5-((2-(trifluoromethyl)pyridin-3-yl)thio)-1H-imidazo[4,5-b]pyrazin-2-yl)octahydro-2H-pyrazino[1,2-a]pyrazine], the IC50 (commonly the concentration that inhibits the measured activity by half) fell in the range of 0.5 to 3 µM. The same measure, in the same setting: to `Cc1c(Cl)cccc1Sc1cnc2[nH]c(N3CCC(C)(N)CC3)nc2n1` [Example 114, 1-(5-((3-chloro-2-methylphenyl)thio)-1H-imidazo[4,5-b]pyrazin-2-yl)-4-methylpiperidin-4-amine] belongs under 0.5 µM; to `COc1ccccc1Sc1cnc2[nH]c(N3CCC(C)(N)CC3)nc2n1` [Example 24, 1-(5-((2-methoxyphenyl)thio)-1H-imidazo[4,5-b]pyrazin-2-yl)-4-methylpiperidin-4-amine], under 0.5 µM; to `NC(=O)Cn1c(N2CCC3(CC2)Cc2ccccc2[C@H]3N)nc2nc(Sc3cccnc3C(F)(F)F)cnc21` [Example 137, (S)-2-(2-(1-amino-1,3-dihydrospiro[indene-2,4′-piperidin]-1′-yl)-5-((2-(trifluoromethyl)pyridin-3-yl)thio)-1H-imidazo[4,5-b]pyrazin-1-yl)acetamide], over 3 µM.

`CC1(N)CCN(c2nc3nc(Sc4ccccc4Cl)cnc3[nH]2)CC1` [Example 98, 1-(5-((2-chlorophenyl)thio)-1H-imidazo[4,5-b]pyrazin-2-yl)-4-methylpiperidin-4-amine]: the IC50 is under 0.5 µM. Same read-out and setting: to `CC1(N)CCN(c2nc3nc(Sc4cccc(F)c4F)cnc3[nH]2)CC1` [Example 21, 1-(5-((2,3-difluorophenyl)thio)-1H-imidazo[4,5-b]pyrazin-2-yl)-4-methylpiperidin-4-amine] belongs 0.5 to 3 µM; to `CC1(N)CCN(c2nc3nc(Sc4ncnc5ccccc45)cnc3[nH]2)CC1` [Example 101, 4-methyl-1-(5-(quinazolin-4-ylthio)-1H-imidazo[4,5-b]pyrazin-2-yl)piperidin-4-amine], over 3 µM. The same measure, in the same setting: the value for `CC1(N)CCN(c2nc3nc(Sc4cccnc4C(F)(F)F)cnc3s2)CC1` [Example 119, 4-methyl-1-(5-((2-(trifluoromethyl)pyridin-3-yl)thio)thiazolo[4,5-b]pyrazin-2-yl)piperidin-4-amine] was 0.5 to 3 µM; that for `NC1CCCN(c2nc3nc(Sc4cccnc4C(F)(F)F)cnc3[nH]2)CC1` (centres unmarked) [Example 85, 1-(5-((2-(trifluoromethyl)pyridin-3-yl)thio)-1H-imidazo[4,5-b]pyrazin-2-yl)azepan-4-amine] was 0.5 to 3 µM; that for `COc1cccc(Sc2cnc3[nH]c(N4CCC(C)(N)CC4)nc3n2)c1` [Example 25, 1-(5-((3-methoxyphenyl)thio)-1H-imidazo[4,5-b]pyrazin-2-yl)-4-methylpiperidin-4-amine] was 0.5 to 3 µM. On the same count and under the same terms, to `CC1(N)CCN(c2nc3nc(Sc4cccc5ncncc45)cnc3[nH]2)CC1` [Example 100, 4-methyl-1-(5-(quinazolin-5-ylthio)-1H-imidazo[4,5-b]pyrazin-2-yl)piperidin-4-amine] belongs 0.5 to 3 µM; to `CC1(N)CCN(c2nc3nc(Sc4ccncc4)cnc3[nH]2)CC1` [Example 80, 4-methyl-1-(5-(pyridin-4-ylthio)-1H-imidazo[4,5-b]pyrazin-2-yl)piperidin-4-amine], 0.5 to 3 µM. For `CC1(N)CCN(c2nc3nc(Sc4ccsc4Cl)cnc3[nH]2)CC1` [Example 73, 1-(5-((2-chlorothiophen-3-yl)thio)-1H-imidazo[4,5-b]pyrazin-2-yl)-4-methylpiperidin-4-amine], the IC50 was under 0.5 µM. Same read-out and setting: to `CC1(N)CCN(c2nc3ncc(Sc4csc5ccccc45)nc3[nH]2)CC1` [Example 30, 1-(6-(benzo[b]thiophen-3-ylthio)-1H-imidazo[4,5-b]pyrazin-2-yl)-4-methylpiperidin-4-amine] belongs over 3 µM. On the same count and under the same terms, to `NC1CCCN(c2nc3nc(Sc4cccnc4C(F)(F)F)cnc3[nH]2)C1` (centres unmarked) [Example 33, 1-(5-((2-(trifluoromethyl)pyridin-3-yl)thio)-1H-imidazo[4,5-b]pyrazin-2-yl)piperidin-3-amine] belongs under 0.5 µM; to `CC1(N)CCN(c2nc3nc(Sc4cccc5[nH]cnc45)cnc3[nH]2)CC1` [Example 116], 0.5 to 3 µM; to `FC(F)(F)c1ncccc1Sc1cnc2[nH]c(NCC3COCCN3)nc2n1` (centres unmarked) [Example 111, N-(morpholin-3-ylmethyl)-5-((2-(trifluoromethyl)pyridin-3-yl)thio)-1H-imidazo[4,5-b]pyrazin-2-amine], over 3 µM. Same read-out and setting: the value for `CC(N)C1CN(c2nc3nc(Sc4cccnc4C(F)(F)F)cnc3[nH]2)CCO1` (centres unmarked) [Example 86, 1-(4-(5-((2-(trifluoromethyl)pyridin-3-yl)thio)-1H-imidazo[4,5-b]pyrazin-2-yl)morpholin-2-yl)ethan-1-amine] was 0.5 to 3 µM; that for `CC1(N)CCN(c2nc3ncc(Sc4csc5cnccc45)nc3[nH]2)CC1` [Example 9, 4-methyl-1-(6-(thieno[2,3-c]pyridin-3-ylthio)-1H-imidazo[4,5-b]pyrazin-2-yl)piperidin-4-amine] was 0.5 to 3 µM. With `N[C@@H]1c2ccccc2CC12CCN(c1nc3nc(Sc4cccnc4C(F)(F)F)c(Cl)nc3[nH]1)CC2` [Example 118, (S)-1′-(6-chloro-5-((2-(trifluoromethyl)pyridin-3-yl)thio)-1H-imidazo[4,5-b]pyrazin-2-yl)-1,3-dihydrospiro[indene-2,4′-piperidin]-1-amine], the IC50 was under 0.5 µM. Still for that read-out and setting: the value for `FC(F)(F)c1ncccc1Sc1cnc2[nH]c(N3C[C@@H]4CC[C@H]3CN4)nc2n1` [Example 90, (1S,4S)-2-(5-((2-(trifluoromethyl)pyridin-3-yl)thio)-1H-imidazo[4,5-b]pyrazin-2-yl)-2,5-diazabicyclo[2.2.2]octane] was 0.5 to 3 µM. Still for that read-out and setting: the value for `CC1(N)CCN(c2nc3nc(Sc4cccc5c4C(=O)CC5)cnc3[nH]2)CC1` [Example 76, 7-((2-(4-amino-4-methylpiperidin-1-yl)-1H-imidazo[4,5-b]pyrazin-5-yl)thio)-2,3-dihydro-1H-inden-1-one] was 0.5 to 3 µM; that for `NC1CN(c2nc3nc(Sc4cccnc4C(F)(F)F)cnc3[nH]2)C1` [Example 15, 1-(5-((2-(trifluoromethyl)pyridin-3-yl)thio)-1H-imidazo[4,5-b]pyrazin-2-yl)azetidin-3-amine] was over 3 µM; that for `CC(N)CCNc1nc2nc(Sc3cccnc3C(F)(F)F)cnc2[nH]1` (centres unmarked) [Example 54, N1-(5-((2-(trifluoromethyl)pyridin-3-yl)thio)-1H-imidazo[4,5-b]pyrazin-2-yl)butane-1,3-diamine] was 0.5 to 3 µM.

The next experiment has as its system ERK phosphorylation in KYSE-520 cells. Put plainly: Phospho-ERK cellular assay (Advanced phospho-ERK1/2 (Thr202/Tyr204) TR-FRET kit). In kind it is cell-based. Conditions: Homo sapiens, KYSE-520, 2 h, KYSE-520 cells, 2 h at 37° C., TR-FRET; read-out: pERK IC50. The protocol: Phospho-ERK Cellular Assay
ERK phosphorylation was detected using the “Advanced phospho-ERK1/2 (Thr202/Tyr204)” TR-FRET kit (Cisbio, Cat #64AERPEG/H), following the manufacturer reagents and instructions. […] After an overnight incubation, cells were treated with DMSO serial diluted compounds and incubated for 2 h at 37° C. After incubation, 2 μL/well of 4× Lysis Buffer (Cisbio 64KL1FDF), were added and incubated with cells for 30 min on gentle shaking. Finally, lysates were added with 2 μL/well of Eu cryptate (donor) and D2 (acceptor) conjugated antibodies (as provided by the Cisbio kit #64AERPEG/H) diluted 1:100 in Detection Buffer (as provided by the Cisbio kit #64AERPEG/H). Plates were then sealed and incubated at room temperature in the dark. After an overnight incubation, the TR-FRET signal was detected on a suitable reader (Envision, PerkinElmer). The lower the TR-FRET signal the higher the higher the SHP2 inhibition in cells. […] The percentage activity is fitted against the compound dilutions with a four-parameter logistic regression. The inflection point (i.e. the concentration at which half-maximal inhibition is achieved) is the IC50.
In the case of `Nc1nccc(Sc2cnc3[nH]c(N4CCC5(CC4)Oc4ccccc4[C@H]5N)nc3n2)c1Cl` [Example 35, (R)-1′-(5-((2-amino-3-chloropyridin-4-yl)thio)-1H-imidazo[4,5-b]pyrazin-2-yl)-3H-spiro[benzofuran-2,4′-piperidin]-3-amine], the half-maximal inhibitory concentration (IC50) is under 1 µM.

The experiment is the same for the next values; noted with them: Homo sapiens, KYSE-520, 2 h, read-out: pERK IC50.
Consider `FC(F)(F)c1ncccc1Sc1cnc2nc(NC3CCNC4(CCC4)C3)[nH]c2n1` (centres unmarked) [Example 126, N-(5-azaspiro[3.5]nonan-8-yl)-6-((2-(trifluoromethyl)pyridin-3-yl)thio)-1H-imidazo[4,5-b]pyrazin-2-amine], for which the IC50 was over 5 µM. Still for that read-out and setting: to `FC(F)(F)c1ncccc1Sc1cnc2[nH]c(N3CCC4CCC(C3)N4)nc2n1` (centres unmarked) [Example 125, 2-(3,9-diazabicyclo[4.2.1]nonan-3-yl)-5-((2-(trifluoromethyl)pyridin-3-yl)thio)-1H-imidazo[4,5-b]pyrazine] belongs over 5 µM; to `FC(F)(F)c1ncccc1Sc1cnc2[nH]c(NCC3CNC(c4ccccc4)C3)nc2n1` (centres unmarked) [Example 128, N-((5-phenylpyrrolidin-3-yl)methyl)-5-((2-(trifluoromethyl)pyridin-3-yl)thio)-1H-imidazo[4,5-b]pyrazin-2-amine], over 5 µM. Turning to `CC1(C)C2CNCC1CN(c1nc3nc(Sc4cccnc4C(F)(F)F)cnc3[nH]1)C2` [Example 124, 2-(9,9-dimethyl-3,7-diazabicyclo[3.3.1]nonan-3-yl)-5-((2-(trifluoromethyl)pyridin-3-yl)thio)-1H-imidazo[4,5-b]pyrazine], the IC50 is over 5 µM.

These data come from patent US20220289753A1, “SHP2 INHIBITORS” (IRBM S.P.A., priority 2019, published 2022).
